For 23 compounds, EC50 results are on record in patent publication US10550102B2, “Indane and indoline derivatives and the use thereof as soluble guanylate cyclase activators” (NOVARTIS AG, priority 2014, dated 2020).

pEC50: −log10 of the molar value. Bounds are passed on as bounds.

By pEC50 is commonly meant the EC50 on a negative log10 scale, so that one unit is a factor of ten.

The target in this assay is soluble guanylate cyclase (human GUCYA3 and GUCYB3) overexpressed in CHO cells (Homo sapiens (Human), UniProt Q02108+Q02153). Briefly: CHO cellular assay (cGMP production, Cisbio cGMP HTRF kit). The format is cell-based. To be noted: CHO GUCY clone 8E10, cGMP production, assay buffer with 1 mM IBMX and 20 uM ODQ, 1 h room temperature; minimum quantification limit 0.5 nM (listed 0.5 nM means ≤0.5 nM); read-out: EC50. The text has this: Chinese hamster ovary (CHO) cells overexpressing soluble guanylate cyclase were generated to test the effect of sGC activators in a cellular context. Human cDNAs for GUCYA3 (RefSeq: NM_000856.3) and GUCYB3 (RefSeq: NM_000857.1) were amplified by PCR from a HUVEC (Human Umbilical Vein Endothelial Cells) cDNA library and cloned into mammalian expression vectors. CHO K1 cells (ATCC CCL-61) were transfected using Lipofectamine 2000 following manufacturer's instructions and stably expressing clones were identified by antibiotic selection. CHO GUCY clone 8E10 was used for subsequent experiments. Cells were seeded at a density of 3000 cells/well in white 384-well proxyplates (Perkin Elmer) and incubated overnight, then the medium was removed and cells were washed with assay buffer (HBSS, 0.1% BSA. 1 mM IBMX, 20 uM ODQ). sGC activators were serially diluted in DMSO, then diluted in assay buffer prior to adding to cells (10 ul/well, final DMSO concentration 0.5%). Cells were incubated with compounds for 1 h room temperature, then assayed for cGMP production using Cisbio cGMP HTRF kit (62GM2PEC) according to manufacturer's instructions. The EC50s are calculated based on the amount of cGMP interpolated from the standard curve, using a 4-parameter sigmoidal dose-response.
Chain of soluble guanylate cyclase (human GUCYA3 and GUCYB3) overexpressed in CHO cells (Q02108 whole entry partner): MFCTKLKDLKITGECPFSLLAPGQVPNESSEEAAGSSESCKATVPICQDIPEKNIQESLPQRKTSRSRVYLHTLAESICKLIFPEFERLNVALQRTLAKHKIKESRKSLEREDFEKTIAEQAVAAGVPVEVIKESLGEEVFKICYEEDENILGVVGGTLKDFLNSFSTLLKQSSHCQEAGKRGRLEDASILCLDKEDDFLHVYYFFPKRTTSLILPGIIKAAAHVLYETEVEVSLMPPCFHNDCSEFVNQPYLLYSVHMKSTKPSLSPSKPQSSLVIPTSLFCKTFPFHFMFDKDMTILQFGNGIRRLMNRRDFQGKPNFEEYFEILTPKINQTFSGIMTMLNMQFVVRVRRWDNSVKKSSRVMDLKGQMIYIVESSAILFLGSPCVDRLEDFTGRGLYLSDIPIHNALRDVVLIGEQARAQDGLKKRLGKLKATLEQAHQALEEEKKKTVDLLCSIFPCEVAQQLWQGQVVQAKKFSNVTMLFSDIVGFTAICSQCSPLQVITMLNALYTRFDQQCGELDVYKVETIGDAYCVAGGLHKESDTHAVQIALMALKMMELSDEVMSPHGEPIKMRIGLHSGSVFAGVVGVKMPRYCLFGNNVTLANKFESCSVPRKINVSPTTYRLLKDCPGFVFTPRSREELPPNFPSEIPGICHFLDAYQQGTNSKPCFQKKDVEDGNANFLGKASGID
Chain of soluble guanylate cyclase (human GUCYA3 and GUCYB3) overexpressed in CHO cells (Q02153 whole entry): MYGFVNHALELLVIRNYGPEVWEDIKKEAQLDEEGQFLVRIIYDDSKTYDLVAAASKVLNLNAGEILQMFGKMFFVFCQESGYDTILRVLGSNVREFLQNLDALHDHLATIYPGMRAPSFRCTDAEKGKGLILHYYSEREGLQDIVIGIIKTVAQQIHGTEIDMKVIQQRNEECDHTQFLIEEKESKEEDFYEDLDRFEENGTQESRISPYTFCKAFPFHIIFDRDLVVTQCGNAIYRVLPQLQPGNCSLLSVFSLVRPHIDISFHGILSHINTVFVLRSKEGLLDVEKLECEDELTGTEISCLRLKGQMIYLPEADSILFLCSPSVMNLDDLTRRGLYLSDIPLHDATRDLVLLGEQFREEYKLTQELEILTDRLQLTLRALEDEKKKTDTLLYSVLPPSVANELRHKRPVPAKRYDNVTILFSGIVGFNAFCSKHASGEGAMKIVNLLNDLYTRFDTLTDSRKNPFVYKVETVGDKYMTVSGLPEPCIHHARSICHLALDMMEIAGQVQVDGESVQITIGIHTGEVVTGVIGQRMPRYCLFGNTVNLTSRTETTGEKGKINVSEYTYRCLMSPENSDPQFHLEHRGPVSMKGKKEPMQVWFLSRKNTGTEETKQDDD
Take `CCc1cc(CC2CCc3cccc(-c4cccc(-n5ncc(C(=O)O)c5CC)n4)c32)ccc1C1CCN(C(=O)C2CC2)CC1` (single isomer, unassigned; (+)) [38-1 (+), (+)-1-(6-(3-(4-(1-(cyclopropanecarbonyl)piperidin-4-yl)-3-ethylbenzyl)-2,3-dihydro-1H-inden-4-yl)pyridin-2-yl)-5-ethyl-1H-pyrazole-4-carboxylic acid]: the pEC50 is at least 9.30.

As to `CCc1cc(CC2CCc3cccc(-c4cccc(-n5ncc(C(=O)O)c5C)n4)c32)ccc1C1CCN(C(=O)C2CC2)CC1` (single isomer, unassigned; (+)) [38-2 (+), (+)-1-(6-(3-(4-(1-(cyclopropanecarbonyl)piperidin-4-yl)-3-ethylbenzyl)-2,3-dihydro-1H-inden-4-yl)pyridin-2-yl)-5-methyl-1H-pyrazole-4-carboxylic acid], the pEC50 was at least 9.30.

For `CCc1c(C(=O)O)cnn1-c1cccc(-c2cccc3c2C(Cc2ccc(C4CCN(C(=O)C5CC5)CC4)cc2C)CC3)n1` (single isomer, unassigned; (+)) [38-3 (+), (+)-1-(6-(3-(4-(1-(cyclopropanecarbonyl)piperidin-4-yl)-2-methylbenzyl)-2,3-dihydro-1H-inden-4-yl)pyridin-2-yl)-5-ethyl-1H-pyrazole-4-carboxylic acid], the negative-log EC50 (pEC50) is at least 9.30.

For the compound `CCC[C@H](O)C(=O)N1CCC(c2ccc(CC3CCc4cccc(-c5cccc(-n6ncc(C(=O)O)c6CC)n5)c43)cc2CC)CC1` (single isomer, unassigned; (+)) [40-1 (+)], the negative logarithm of the EC50 (pEC50) was at least 9.30.

Take `CCc1c(C(=O)O)cnn1-c1cccc(-c2cccc3c2C(Cc2ccc(C4CCN(C(=O)[C@H](C)O)CC4)cc2C)CC3)n1` (single isomer, unassigned; (+)) [40-2 (+)]: the pEC50 is at least 9.30.

In the case of `CCC[C@H](O)C(=O)N1CCC(c2ccc(CC3CCc4cccc(-c5cccc(-n6ncc(C(=O)O)c6CC)n5)c43)c(C)c2)CC1` (single isomer, unassigned; (+)) [40-3 (+)], the pEC50 was at least 9.30.

For `Cc1cc2c(c(-c3cccc(-n4ncc(C(=O)O)c4C(F)(F)F)n3)c1)C(Nc1ccc(C3CCN(C(=O)C4CC4)CC3)cc1C)CC2` (single isomer, unassigned; (+)) [43 (+), (+)-1-(6-(3-((4-(1-(Cyclopropanecarbonyl)piperidin-4-yl)-2-methylphenyl)amino)-6-methyl-2,3-dihydro-1H-inden-4-yl)pyridin-2-yl)-5-(trifluoromethyl)-1H-pyrazole-4-carboxylic acid], the negative-log EC50 (pEC50) is 9.00.

Consider `Cc1cc(C2CCN(C(=O)C3CC3)CC2)ccc1NC1CCc2cccc(-c3cccc(-n4ncc(C(=O)O)c4C)c3)c21` (single isomer, unassigned; (+)) [44 (+), (+)-1-(3-(3-((4-(1-(cyclopropanecarbonyl)piperidin-4-yl)-2-methylphenyl)amino)-2,3-dihydro-1H-inden-4-yl)phenyl)-5-methyl-1H-pyrazole-4-carboxylic acid], for which the negative-log EC50 (pEC50) is at least 9.30.

For `Cc1cc(C2CCN(C(=O)C3CC3)CC2)ccc1CC1CCc2cccc(-c3cccc(-n4ncc(C(=O)O)c4C)c3)c21` (single isomer, unassigned; (+)) [54. b). (+), (+)-1-(3-(3-(4-(1-(cyclopropanecarbonyl)piperidin-4-yl)-2-methylbenzyl)-2,3-dihydro-1H-inden-4-yl)phenyl)-5-methyl-1H-pyrazole-4-carboxylic acid], the pEC50 is 9.00.

Regarding `CCc1cc(CC2CCc3cccc(-c4cccc(-n5ncc(C(=O)O)c5C)c4)c32)ccc1C1CCN(C(=O)C2CC2)CC1` (single isomer, unassigned; (+)) [55-1 (+), (+)-1-(3-(3-(4-(1-(cyclopropanecarbonyl)piperidin-4-yl)-3-ethylbenzyl)-2,3-dihydro-1H-inden-4-yl)phenyl)-5-methyl-1H-pyrazole-4-carboxylic acid], the pEC50 was at least 9.30.

For `Cc1nnc(N2CCC(c3ccc(NC4CCc5cccc(-c6cccc(-n7ncc(C(=O)O)c7C)n6)c54)c(C)c3)CC2)o1` (single isomer, unassigned; (+)) [58. b). (+), (+)-5-methyl-1-(6-(3-((2-methyl-4-(1-(5-methyl-1,3,4-oxadiazol-2-yl)piperidin-4-yl)phenyl)amino)-2,3-dihydro-1H-inden-4-yl)pyridin-2-yl)-1H-pyrazole-4-carboxylic acid], the pEC50 was at least 9.30.

`CCc1cc(CN2CC(C)c3cccc(-c4cccc(-n5ncc(C(=O)O)c5CC)n4)c32)ccc1C1CCN(C(=O)C2CC2)CC1` (single isomer, unassigned; (+)) [(+)-20-1, (+)-1-(6-(1-(4-(1-(Cyclopropanecarbonyl)piperidin-4-yl)-3-ethylbenzyl)-3-methylindolin-7-yl)pyridin-2-yl)-5-ethyl-1H-pyrazole-4-carboxylic acid]: the negative logarithm of the EC50 (pEC50) was at least 9.30.

With `CCc1c(C(=O)O)cnn1-c1cccc(-c2cccc3c2N(Cc2ccc(C4CCN(C(=O)C5CC5)CC4)cc2C)CC3C)n1` (single isomer, unassigned; (+)) [(+)-20-2, (+)-1-(6-(1-(4-(1-(Cyclopropanecarbonyl)piperidin-4-yl)-2-methylbenzyl)-3-methylindolin-7-yl)pyridin-2-yl)-5-ethyl-1H-pyrazole-4-carboxylic acid], the pEC50 is 8.00.

Turning to `CCc1cc(CN2CC(C)c3cccc(-c4cccc(-n5ncc(C(=O)O)c5C)n4)c32)ccc1C1CCN(C(=O)C2CC2)CC1` (single isomer, unassigned; (+)) [(+)-20-3, (+)-1-(6-(1-(4-(1-(Cyclopropanecarbonyl)piperidin-4-yl)-3-ethylbenzyl)-3-methylindolin-7-yl)pyridin-2-yl)-5-methyl-1H-pyrazole-4-carboxylic acid], the pEC50 was at least 9.30.

For the compound `CCc1cc(NC2COc3cccc(-c4cccc(-n5ncc(C(=O)O)c5C(F)(F)F)n4)c32)ccc1C1CCN(C(=O)C2CC2)CC1` (single isomer, unassigned; (+)) [(+)-36-1, (+)-1-(6-(3-((4-(1-(Cyclopropanecarbonyl)piperidin-4-yl)-3-ethylphenyl)amino)-2,3-dihydrobenzofuran-4-yl)pyridin-2-yl)-5-(trifluoromethyl)-1H-pyrazole-4-carboxylic acid], the pEC50 was at least 9.30.

For the compound `CCc1cc(NC2COc3cccc(-c4cccc(-n5ncc(C(=O)O)c5CC)n4)c32)ccc1C1CCN(C(=O)C2CC2)CC1` (single isomer, unassigned; (+)) [(+)-36-2, (+)-1-(6-(3-((4-(1-(Cyclopropanecarbonyl)piperidin-4-yl)-3-ethylphenyl)amino)-2,3-dihydrobenzofuran-4-yl)pyridin-2-yl)-5-ethyl-1H-pyrazole-4-carboxylic acid], the pEC50 is at least 9.30.

With `Cc1cc(C2CCN(C(=O)C(C)C)CC2)ccc1NC1CCc2cccc(-c3cccc(-n4ncc(C(=O)O)c4C)n3)c21` (single isomer, unassigned; (+)) [(+)-46-1], the pEC50 was at least 9.30.

Turning to `Cc1cc(C2CCN(C(=O)CC3CC3)CC2)ccc1NC1CCc2cccc(-c3cccc(-n4ncc(C(=O)O)c4C)n3)c21` (single isomer, unassigned; (+)) [(+)-46-3, (+)-1-(6-(3-((4-(1-(2-Cyclopropylacetyl)piperidin-4-yl)-2-methylphenyl)amino)-2,3-dihydro-1H-inden-4-yl)pyridin-2-yl)-5-methyl-1H-pyrazole-4-carboxylic acid], the negative-log EC50 (pEC50) is 9.00.

`Cc1cc(C2CCN(C(=O)CC3CC3)CC2)c(F)cc1NC1CCc2cccc(-c3cccc(-n4ncc(C(=O)O)c4C)n3)c21` (single isomer, unassigned; (+)) [(+)-46-5, (+)-1-(6-(3-((4-(1-(2-Cyclopropylacetyl)piperidin-4-yl)-5-fluoro-2-methylphenyl)amino)-2,3-dihydro-1H-inden-4-yl)pyridin-2-yl)-5-methyl-1H-pyrazole-4-carboxylic acid]: the negative-log EC50 (pEC50) was 9.00.

In the case of `CCc1cc(NC2CCc3cccc(-c4cccc(-n5ncc(C(=O)O)c5C)n4)c32)ccc1C1CCN(C(=O)C2CC2)CC1` (single isomer, unassigned; (+)) [(+)-46-6], the pEC50 is at least 9.30.

For the compound `CCOC(=O)N1CCC(c2ccc(NC3CCc4cccc(-c5cccc(-n6ncc(C(=O)O)c6CC)n5)c43)cc2CC)CC1` (single isomer, unassigned; (+)) [(+)-52-1], the negative-log EC50 (pEC50) is at least 9.30.

Take `CCc1cc(NC2CCc3cccc(-c4cccc(-n5ncc(C(=O)O)c5CC)n4)c32)ccc1C1CCN(C(=O)OC)CC1` (single isomer, unassigned; (+)) [(+)-52-2, (+)-5-Ethyl-1-(6-(3-((3-ethyl-4-(1-(methoxycarbonyl)piperidin-4-yl)phenyl)amino)-2,3-dihydro-1H-inden-4-yl)pyridin-2-yl)-1H-pyrazole-4-carboxylic acid]: the negative logarithm of the EC50 (pEC50) was at least 9.30.

Regarding `C=CCOC(=O)N1CCC(c2ccc(NC3CCc4cccc(-c5cccc(-n6ncc(C(=O)O)c6CC)n5)c43)cc2CC)CC1` (single isomer, unassigned; (+)) [(+)-52-3], the pEC50 was at least 9.30.
